Structures can show the parent of a compound that is named as a salt.
Tests used:
[1] = tested on: male mice (SPF1, OF1 strain); assay: Analgesic activity: inhibition of pain reactions (abdominal twistings) after intraperitoneal phenylbenzoquinone, oral administration; format: in vivo; details: Mus musculus, po; for inhibition in vivo at 16 mg/kg: 16 mg/kg oral; for inhibition in vivo at 32 mg/kg: 32 mg/kg oral; for inhibition in vivo at 64 mg/kg: 64 mg/kg oral; for inhibition in vivo at 128 mg/kg: 128 mg/kg oral; for inhibition in vivo at 256 mg/kg: 256 mg/kg oral; for ED50: read-out: ED50 (50% effective dose), analgesic; for inhibition in vivo at 8 mg/kg: 8 mg/kg oral
Protocol: The products tested are administered orally to batches of 6 male mice (SPF1, OF1 strain) weighing 19-20 g.
1 hour later, 0.3 ml of a 0.02% strength solution of phenylbenzoquinone is injected intraperitoneally into each mouse and, from the 5th to the 10th minute after the latter treatment, the number of pain reactions (abdominal twistings) is counted.
Table V to VIII below give the percentage inhibition of these reactions.

Solubility in water = format: physicochemical; details: white powder, sodium salt
[2] = tested on: SPF male rats, OFA strain; assay: Anti-inflammatory activity: paw swelling after subcutaneous plantar injection of carraghenine, oral administration; format: in vivo; details: Rattus norvegicus, po; for inhibition in vivo at 64 mg/kg: 64 mg/kg oral; for inhibition in vivo at 128 mg/kg: 128 mg/kg oral; for inhibition in vivo at 256 mg/kg: 256 mg/kg oral; for ED50: at the moment of greatest swelling of the controls, read-out: ED50 (50% effective dose), anti-inflammatory; for inhibition in vivo at 16 mg/kg: 16 mg/kg oral; for inhibition in vivo at 32 mg/kg: 32 mg/kg oral
Protocol: Anti-inflammatory activity
The products to be tested are administered orally to batches of 12 SPF male rats, OFA strain, weighing 120-130 g, 2 hours and 30 minutes (1/2 dose each time) before the subcutaneous plantar injection of 0.05 ml of a 1% strength solution of carraghenine. The volume of the back paw which received the phlogogenic agent is measured at regular intervals. The 50% effective dose is calculated at the moment of greatest swelling of the controls.
The results are given in Tables I to IV below, in which the percentage reduction in the inflammation is noted.

[3] = read-out: percentage inhibition of pain reactions
[4] = carraghenine, read-out: percentage reduction in the inflammation

| solubility in water (Solubility in water) | SMILES | inhibition in vivo at 16 mg/kg [1, 3] | inhibition in vivo at 32 mg/kg [1, 3] | inhibition in vivo at 64 mg/kg [1, 3] | inhibition in vivo at 128 mg/kg [1, 3] | inhibition in vivo at 256 mg/kg [1, 3] | ED50 [1] | inhibition in vivo at 64 mg/kg [2, 4] | inhibition in vivo at 128 mg/kg [2, 4] | inhibition in vivo at 256 mg/kg [2, 4] | ED50 [2] | inhibition in vivo at 8 mg/kg [1, 3] | inhibition in vivo at 16 mg/kg [2, 4] | inhibition in vivo at 32 mg/kg [2, 4] | inhibition in vivo at 512 mg/kg ([2]; 512 mg/kg oral, carraghenine, read-out: percentage reduction in the inflammation) | inhibition in vivo at 2 mg/kg ([1]; 2 mg/kg oral, read-out: percentage inhibition of pain reactions) | inhibition in vivo at 4 mg/kg ([1]; 4 mg/kg oral, read-out: percentage inhibition of pain reactions) | inhibition in vivo at 8 mg/kg ([2]; 8 mg/kg oral, carraghenine, read-out: percentage reduction in the inflammation) |
| --- | --- | --- | --- | --- | --- | --- | --- | --- | --- | --- | --- | --- | --- | --- | --- | --- | --- | --- |
| soluble in water | CC1CC(C)c2cc(C(C)C(=O)O)ccc21 (stereo not drawn) [Example 6, Sodium salt of 2-methyl-[1,3-dimethyl-indanyl-(5)]-acetic acid] | 28% | 41% | 59% | 78% | 72% | 40 mg/kg | 16% | 39% | 44% | > 256 mg/kg | – | – | – | – | – | – | – |
| soluble in water | CC1Cc2ccc(C(C)C(=O)O)cc2C1 (stereo not drawn) [Example 15, Sodium salt of 2-methyl-[2-methyl-indanyl-(5)]-acetic acid] | 18% | 68% | 91% | – | – | 23 mg/kg | 27% | 41% | 68% | 160 mg/kg | 14% | 11% | 20% | 72% | – | – | – |
| soluble in water | CC(C(=O)O)c1ccc2c(c1)CC(C(C)C)C2 (stereo not drawn) [Example 31, Sodium salt of 2-methyl-[2-isopropyl-indanyl-(5)]-acetic acid] | – | – | – | – | – | – | – | – | – | – | – | – | – | – | – | – | – |
| – | CC(CO)c1ccc2c(c1)CC(C(C)C)C2 (stereo not drawn) [Example 33, 2-Methyl-β-[2-isopropyl-indanyl-(5)]-ethanol] | 68% | 90% | – | – | – | 9 mg/kg | 52% | 58% | 63% | 85 mg/kg | 42% | 13% | 34% | – | 6% | 25% | 0% |
| – | CCC1Cc2ccc(C(C)CO)cc2C1 (stereo not drawn) [Example 34, 2-Methyl-β-[2-ethyl-indanyl-(5)]-ethanol] | – | 12% | 22% | 60% | 94% | 95 mg/kg | 51% | 60% | 61% | 50 mg/kg | – | 46% | 42% | – | – | – | – |
| – | CC1Cc2ccc(CCO)cc2C1 (stereo not drawn) [Example 35, β-[2-Methyl-indanyl-(5)]-ethanol] | – | 10% | 27% | 69% | 95% | 87 mg/kg | 56% | 76% | 89% | 35 mg/kg | – | 43% | 42% | – | – | – | – |
| – | CC(C)C1Cc2ccc(CCO)cc2C1 (stereo not drawn) [Example 37, β-[2-Isopropyl-indanyl-(5)]-ethanol] | 0% | 40% | 55% | 62% | 81% | 60 mg/kg | 21% | 41% | 30% | > 256 mg/kg | – | 0% | 1% | – | – | – | – |

— patent US4182896A, “Indane derivatives” (Societe Hexachimie, priority 1974, dated 1980)
